Patent publication US20220177538A1, “CO-AGONISTS AT GLP-1 AND GIP RECEPTORS SUITABLE FOR ORAL DELIVERY” (Novo Nordisk A/S, priority 2020, published 2022)
pEC50: −log10 of the molar value. Read-outs that look alike come from different tables or passages of the source. Starred links: 1 amine or outer side, 2 acyl side, 3 side chain; linkers in the order of their positions; H or OH if unused. Non-standard residues stand in square brackets, D forms with d. Residues, ends and D or L forms follow the SMILES beside them. Groups on a side chain read outwards from the residue. *: point of attachment. C20 diacid = O=C(O)CCCCCCCCCCCCCCCCCCC(=O)*; C18 diacid = O=C(O)CCCCCCCCCCCCCCCCC(=O)*; γGlu = O=C(O)[C@H](CCC(=O)[*:2])N[*:1]; εLys = N[C@@H](CCCCN[*:1])C(=O)[*:2]; Aib = CC(C)(N)C(=O)O

Columns and labels:
human GIP receptor = target: T1, human GIP receptor (Homo sapiens, UniProt P48546); experiment: In vitro functional potency, CRE luciferase reporter, whole BHK cells (hGIPR); type: cell-based; conditions: BHK CRE luc2P hGIPR cells
T1 construct: expressed in transfected cells; host or cells: BHK (parent line BHKTS13), clone BHK CRE luc2P hGIPR
T1 sequence (P48546 22-466): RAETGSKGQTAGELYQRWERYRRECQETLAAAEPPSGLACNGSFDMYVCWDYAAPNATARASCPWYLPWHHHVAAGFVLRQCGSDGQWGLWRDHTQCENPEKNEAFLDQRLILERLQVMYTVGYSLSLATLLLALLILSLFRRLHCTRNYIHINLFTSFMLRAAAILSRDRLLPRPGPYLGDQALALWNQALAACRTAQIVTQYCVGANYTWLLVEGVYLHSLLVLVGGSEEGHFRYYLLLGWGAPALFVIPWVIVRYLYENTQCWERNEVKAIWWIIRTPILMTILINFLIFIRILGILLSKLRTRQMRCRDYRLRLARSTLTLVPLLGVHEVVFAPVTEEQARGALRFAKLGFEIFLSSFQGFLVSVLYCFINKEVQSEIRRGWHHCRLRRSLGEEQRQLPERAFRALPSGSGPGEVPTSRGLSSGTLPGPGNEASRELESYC
Procedure, shortened: (§1)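 BHK CRE luc2P cells stably expressing hGIPR or hGLP-1R were seeded at 5000 cells/well overnight. They were treated 3 h at 37° C with a 12-point, 3.5-fold compound series in buffer with or without HSA, and luciferase luminescence was read. Values come from log(agonist)-response regression, averaging at least two replicates.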

[1] = Pharmacokinetic study in dogs after oral dosing of tablets with SNAC; type: in vivo, Beagle dogs; conditions: for Tmax / half-life: male
Procedure: The purpose of this example is to determine the half-life and plasma exposure in vivo of the compounds of the present invention after p.o. administration to beagle dogs, i.e. the terminal half-life and concentration of test substance that reaches circulation with time. This is done in a pharmacokinetic (PK) study, where these parameters of the compound in question are determined. By terminal half-life is generally meant the period of time it takes to halve a certain plasma concentration, measured after the initial distribution phase.
The amount of SNAC in the tablet composition was 100-300 mg, the amount of magnesium stearate in the tablet composition was 7.7 mg, and the target amount of each test substance in the tablet composition was 3-4 mg.
Male beagle dogs, 1-7 years of age and weighing 9-17 kg during the study period, were included in the study. The dogs were dosed in a fasting state. The dogs were group housed in pens (12 hours light: 12 hours dark), and fed individually and restrictedly once daily with Royal Canin Medium Adult dog food (Royal Canin Products, China Branch, or Brogaarden A/S, Denmark). The dogs were used for repeated PK studies with a suitable wash-out period between successive dosing. An appropriate acclimatization period was given prior to initiation of the first PK study. All handling, dosing, and blood sampling of the animals were performed by trained and skilled staff. Before the studies, the dogs were fasted overnight and from 0 to 4 hours after dosing. The dogs were restricted to water 1 hour before dosing until 4 hours after dosing, but otherwise had ad libitum access to water during the whole period.
The compositions were administered by a single oral dosing to the dogs in groups of 6-8 dogs. […] The mouth was then closed, and 10 mL of tap water was given by syringe or gavage to facilitate swallowing of the tablet.
One blood sample was drawn before dosing, and additional samples were drawn at predefined time points after dosing for up to 240 hours, such as up to 10 hours, to adequately cover the full plasma concentration-time absorption profile of the test substance. For each blood sample time point, approximately 0.8 mL of whole blood was collected in a 1.5 mL EDTA-coated tube, which was gently turned to mix the sample with EDTA. Blood samples were collected in EDTA buffer (8 mM) and then centrifuged at 4° C. 2000 g for 10 minutes. Plasma was pipetted into Micronic tubes on dry ice, and kept at −20° C. or lower until analysis. Blood samples were taken as appropriate, for example from a venflon in the cephalic vein in the front leg for the first 2 hours and then with syringe from the jugular vein for the rest of the time points. The first few drops were allowed to drain from the venflon to avoid heparin saline from the venflon in the sample.
All blood samples were collected into test tubes containing EDTA for stabilisation and kept on ice until centrifugation. Plasma was separated from whole blood by centrifugation and the plasma was stored at −20° C. or lower until analysis.
The plasma was analysed for test substance using LC-MS (Liquid Chromatography-Mass Spectrometry) as known to the person skilled in the art. […] RP-HPLC separation was achieved using a linear gradient of 1:1 acetonitrile/methanol in 1% aqueous formic acid using either: a Phenomenex Onyx Monolithic C18 column (50×2.0 mm) and a flow rate of 0.8 mL/min at 30° C.; or an Agilent Poroshell 120 SB-C18 column (50×2.1 mm, 2.7 μm) at a flow rate of 0.4 mL/min at 60° C. The mass spectrometer was operated in either positive ionization SIM mode or positive ionization PRM mode.
For each individual animal, a plasma concentration-time profile was analysed by a non-compartmental model in Pharsight Phoenix WinNonLin ver.

human GLP-1 receptor = human GLP-1 receptor (Homo sapiens, UniProt P43220); experiment: In vitro functional potency, CRE luciferase reporter, whole BHK cells (hGLP-1R); type: cell-based; set-up: expressed in transfected cells; host or cells: BHK (parent line BHKTS13), clone BHK CRE luc2P hGLP-1R; conditions: BHK CRE luc2P hGLP-1R cells
Chain of human GLP-1 receptor (P43220 24-463): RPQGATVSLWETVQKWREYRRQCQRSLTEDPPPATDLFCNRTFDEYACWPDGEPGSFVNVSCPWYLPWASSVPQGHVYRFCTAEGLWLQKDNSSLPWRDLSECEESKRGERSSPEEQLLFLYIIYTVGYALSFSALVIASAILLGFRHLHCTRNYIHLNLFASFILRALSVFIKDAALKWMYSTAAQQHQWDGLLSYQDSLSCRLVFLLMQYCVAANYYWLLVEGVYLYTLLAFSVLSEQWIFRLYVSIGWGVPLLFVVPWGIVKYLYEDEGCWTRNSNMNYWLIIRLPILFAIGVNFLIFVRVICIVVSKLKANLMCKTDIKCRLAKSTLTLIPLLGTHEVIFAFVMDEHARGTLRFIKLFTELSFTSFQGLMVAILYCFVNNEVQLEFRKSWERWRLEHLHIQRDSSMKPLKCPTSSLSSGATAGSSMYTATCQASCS
Procedure, shortened: as §1

[2] = 0% HSA, read-out: hGIPR, CRE Luc 0% HSA EC50
[3] = hGIPR, CRE Luc 1% HSA EC50, 1% HSA
[4] = 0% HSA, read-out: hGLP-1R, CRE Luc 0% HSA EC50
[5] = hGLP-1R, CRE Luc 1% HSA EC50, 1% HSA
[6] = oral tablet, SNAC 100 mg, test substance 3 mg, Beagle dogs, arithmetic mean

Tmax ([1]; dog, plasma, oral tablet, SNAC 100 mg, test substance 3 mg, Beagle dogs, median, read-out: Tmax)	AUC/Dose [1, 6]	Cmax/Dose [1, 6]	Structure (SMILES)	pEC50 (human GIP receptor; [2])	pEC50 (human GIP receptor; [3])	AUC/Dose ([1]; dog, in vivo, po)	Cmax/Dose ([1]; dog, in vivo, po)	Tmax ([1]; Beagle, dog, in vivo, po)	half-life ([1]; Beagle, dog, in vivo, po)	pEC50 (human GLP-1 receptor; [4])	pEC50 (human GLP-1 receptor; [5])	AUC/Dose ([1]; oral tablet, SNAC 300 mg, test substance 3 mg, Beagle dogs, arithmetic mean)
			CC[C@H](C)[C@H](NC(=O)[C@H](Cc1ccccc1)NC(=O)[C@H](CCC(=O)O)NC(=O)[C@H](CCCNC(=N)N)NC(=O)[C@H](C)NC(=O)[C@H](C)NC(=O)[C@H](CCC(N)=O)NC(=O)[C@H](CCCCNC(=O)[C@@H](N)CCCCNC(=O)[C@@H](N)CCCCNC(=O)CC[C@H](NC(=O)CCCCCCCCCCCCCCCCCCC(=O)O)C(=O)O)NC(=O)[C@H](CCC(=O)O)NC(=O)[C@H](CC(C)C)NC(=O)[C@H](Cc1ccc(O)cc1)NC(=O)[C@@H](NC(=O)[C@H](CO)NC(=O)[C@H](Cc1ccc(O)cc1)NC(=O)[C@H](CC(=O)O)NC(=O)[C@H](CO)NC(=O)[C@@H](NC(=O)[C@H](Cc1ccccc1)NC(=O)[C@@H](NC(=O)CNC(=O)[C@H](CCC(=O)O)NC(=O)C(C)(C)NC(=O)[C@@H](N)Cc1ccc(O)cc1)[C@@H](C)O)[C@@H](C)O)[C@@H](C)CC)C(=O)N[C@@H](CC(N)=O)C(=O)N[C@@H](Cc1c[nH]c2ccccc12)C(=O)N[C@@H](CC(C)C)C(=O)N[C@@H](CC(C)C)C(=O)N[C@@H](C)C(=O)NCC(=O)NCC(=O)N1CCC[C@H]1C(=O)N[C@@H](CO)C(=O)N[C@@H](CO)C(=O)NCC(=O)N[C@@H](C)C(=O)N1CCC[C@H]1C(=O)N1CCC[C@H]1C(=O)N1CCC[C@H]1C(=O)N[C@@H](CO)C(=O)O [Compound 16] (H-Y[Aib]EGTFTSDYSIYLEK([εLys-εLys-γGlu-C20 diacid])QAAREFINWLLAGGPSSGAPPPS-OH)	10.87	9.09	8.6 kg·h/L	0.21 kg/L	1.3 h	47 h	11.51	9.49	
2 h	10.8 kg·h/L	0.21 kg/L	CC[C@H](C)[C@H](NC(=O)[C@H](Cc1ccccc1)NC(=O)[C@H](CCC(=O)O)NC(=O)[C@H](CCCNC(=N)N)NC(=O)[C@H](C)NC(=O)[C@H](C)NC(=O)[C@H](CCC(N)=O)NC(=O)[C@H](CCCCNC(=O)[C@@H](N)CCCCNC(=O)[C@@H](N)CCCCNC(=O)CC[C@H](NC(=O)CCCCCCCCCCCCCCCCC(=O)O)C(=O)O)NC(=O)[C@H](CCC(=O)O)NC(=O)[C@H](CC(C)C)NC(=O)[C@H](CC(C)C)NC(=O)[C@@H](NC(=O)[C@H](CO)NC(=O)[C@H](Cc1ccc(O)cc1)NC(=O)[C@H](CC(=O)O)NC(=O)[C@H](CO)NC(=O)[C@@H](NC(=O)[C@H](Cc1ccccc1)NC(=O)[C@@H](NC(=O)CNC(=O)[C@H](CCC(=O)O)NC(=O)C(C)(C)NC(=O)[C@@H](N)Cc1ccc(O)cc1)[C@@H](C)O)[C@@H](C)O)[C@@H](C)CC)C(=O)N[C@@H](CC(N)=O)C(=O)N[C@@H](Cc1c[nH]c2ccccc12)C(=O)N[C@@H](CC(C)C)C(=O)N[C@@H](CC(C)C)C(=O)N[C@@H](C)C(=O)NCC(=O)NCC(=O)N1CCC[C@H]1C(=O)N[C@@H](CO)C(=O)N[C@@H](CO)C(=O)O [Compound 20] (H-Y[Aib]EGTFTSDYSILLEK([εLys-εLys-γGlu-C18 diacid])QAAREFINWLLAGGPSS-OH)	11.15	9.61				56 h	11.38	9.59	
			CC[C@H](C)[C@H](NC(=O)[C@H](Cc1ccccc1)NC(=O)[C@H](CCC(=O)O)NC(=O)[C@H](Cc1c[nH]cn1)NC(=O)[C@H](C)NC(=O)[C@H](C)NC(=O)[C@H](CCC(N)=O)NC(=O)[C@H](CCCCNC(=O)[C@@H](N)CCCCNC(=O)[C@@H](N)CCCCNC(=O)CC[C@H](NC(=O)CCCCCCCCCCCCCCCCC(=O)O)C(=O)O)NC(=O)[C@H](CCC(=O)O)NC(=O)[C@H](CC(C)C)NC(=O)[C@H](CC(C)C)NC(=O)[C@@H](NC(=O)[C@H](CO)NC(=O)[C@H](Cc1ccc(O)cc1)NC(=O)[C@H](CC(=O)O)NC(=O)[C@H](CO)NC(=O)[C@@H](NC(=O)[C@H](Cc1ccccc1)NC(=O)[C@@H](NC(=O)CNC(=O)[C@H](CCC(=O)O)NC(=O)C(C)(C)NC(=O)[C@@H](N)Cc1ccc(O)cc1)[C@@H](C)O)[C@@H](C)O)[C@@H](C)CC)C(=O)N[C@@H](CCC(=O)O)C(=O)N[C@@H](Cc1c[nH]c2ccccc12)C(=O)N[C@@H](CC(C)C)C(=O)N[C@@H](CC(C)C)C(=O)N[C@@H](C)C(=O)NCC(=O)NCC(=O)N1CCC[C@H]1C(=O)N[C@@H](CO)C(=O)N[C@@H](CO)C(=O)NCC(=O)N[C@@H](C)C(=O)N1CCC[C@H]1C(=O)N1CCC[C@H]1C(=O)N1CCC[C@H]1C(=O)N[C@@H](CO)C(=O)O [Compound 30] (H-Y[Aib]EGTFTSDYSILLEK([εLys-εLys-γGlu-C18 diacid])QAAHEFIEWLLAGGPSSGAPPPS-OH)	11.49	9.73	6.5 kg·h/L	0.24 kg/L	0.8 h	81 h	11.14	9.57	
			CC[C@H](C)[C@H](NC(=O)[C@H](Cc1ccccc1)NC(=O)[C@H](CCC(=O)O)NC(=O)[C@H](CCCNC(=N)N)NC(=O)[C@H](C)NC(=O)[C@H](C)NC(=O)[C@H](CCC(N)=O)NC(=O)[C@H](CCC(=O)O)NC(=O)[C@H](CCC(=O)O)NC(=O)[C@H](CC(C)C)NC(=O)[C@H](CC(C)C)NC(=O)[C@@H](NC(=O)[C@H](CO)NC(=O)[C@H](Cc1ccc(O)cc1)NC(=O)[C@H](CC(=O)O)NC(=O)[C@H](CO)NC(=O)[C@@H](NC(=O)[C@H](Cc1ccccc1)NC(=O)[C@@H](NC(=O)CNC(=O)[C@H](CCC(=O)O)NC(=O)C(C)(C)NC(=O)[C@@H](N)Cc1ccc(O)cc1)[C@@H](C)O)[C@@H](C)O)[C@@H](C)CC)C(=O)N[C@@H](CCC(=O)O)C(=O)N[C@@H](Cc1c[nH]c2ccccc12)C(=O)N[C@@H](CC(C)C)C(=O)N[C@@H](CC(C)C)C(=O)N[C@@H](C)C(=O)NCC(=O)NCC(=O)N1CCC[C@H]1C(=O)N[C@@H](CO)C(=O)N[C@@H](CCCCNC(=O)[C@@H](N)CCCCNC(=O)[C@@H](N)CCCCNC(=O)CC[C@H](NC(=O)CCCCCCCCCCCCCCCCC(=O)O)C(=O)O)C(=O)NCC(=O)N[C@@H](C)C(=O)N1CCC[C@H]1C(=O)N1CCC[C@H]1C(=O)N1CCC[C@H]1C(=O)N[C@@H](CO)C(=O)O [Compound 43] (H-Y[Aib]EGTFTSDYSILLEEQAAREFIEWLLAGGPSK([εLys-εLys-γGlu-C18 diacid])GAPPPS-OH)	11.25	9.35			1.5 h	131 h	11.40	9.44	21.4 kg·h/L
